Earlier results as cited in US6387352B1, “Mouthwash compositions” (Erling Johansen, priority 1996, dated 2002).

Settings: compared to similar solutions excluding fluoride

For F [fluoride], the “increase in hardness of dental enamel on addition of fluoride to calcium/phosphate solution” value is given as “(about) four times increase in hardness”.
